Read-outs that look alike come from different tables or passages of the source.
Tests used:
Caco-2 cells [1] = test: Apoptosis induction in Caco-2 cells (Annexin V/PI, flow cytometry); format: cell-based, human; details: Caco-2, 72 h, compound at its IC50 concentration
Method: (§1) The effects of all the compounds at their corresponding IC50 values for 3 days of treatment on cell cycle distribution in Caco-2 cells were measured as described previously. Data are shown as the mean ± SD of 3 independent experiments (2 wells per treatment) for each time point. In addition, the apoptosis induction exerted by all the compounds at their corresponding IC50 values for 3 days of treatment was examined using the Annexin V/PI detection kit (Molecular Probes, ThermoFisher Scientific, Madrid, Spain) as described previously. Briefly, 20,000 Caco-2 cells per sample were analyzed by flow cytometry (Coulter, EPICS XL-MCL, Miami, FL, USA), and staurosporine 5 μM was used as a standard inducer of apoptosis. Finally, the percentage of alive (negative in both annexin V-FITC and PI), early apoptotic (positive in annexin V-FITC and negative in PI), late apoptotic (positive in both annexin V-FITC and PI), and necrotic cells (only positive in PI) was calculated. Data are shown as the mean ± SD of 3 independent experiments (2 wells per treatment) for each time point.

Caco-2 cells [2] = test: MTT antiproliferative assay in Caco-2 cells; format: cell-based, human; details: for IC50: Homo sapiens, Caco-2, antiproliferative, MTT, mean ± SD (n = 3)
Method: (§2) The cell lines were obtained from the American Type Culture Collection (ATCC, Rockville, MD, USA) and cultured according to the ATCC. The human colon cancer cell lines Caco-2 (p53-null) and HT-29 (mutant p53), and non-tumorigenic colon cells CCD18-Co (wild-type p53) were grown as reported elsewhere. All tested compounds were solubilized in DMSO (<0.5% in the culture medium) and filter-sterilized (0.2 μm) before addition to the culture media. […] The effects of the compounds on Caco-2, HT-29, and CCD18-Co cell viability and proliferation were measured using the MTT reduction assay according to Giménez-Bastida et al.. Data are presented as the mean ± standard deviation (SD) of at least three independent experiments (n = 2 wells for each compound (dose and time point) per experiment). Then, IC50 antiproliferative values were determined using a four-parameter logistic regression fit. The calculations were performed using the online tool Quest Graph^TM IC50 Calculator (AAT Bioquest, Inc., Sunnyvale, CA, USA (https://www.aatbio.com/tools/ic50-calculator, accessed on 26 April 2022).

HT-29 cells [3] = test: MTT antiproliferative assay in HT-29 cells; format: cell-based, human; details: for IC50: Homo sapiens, HT-29, antiproliferative, MTT, mean ± SD (n = 3); for IC50 decrease from 48 to 72 h in HT-29: ratio of IC50 at 48 h vs 72 h (Figure S1)
Method: as §2

Caco-2 cells [4] = test: Cell cycle distribution in Caco-2 cells (flow cytometry); format: cell-based, human; details: Caco-2, 72 h, compound at its IC50 concentration, p < 0.05 vs control
Method: as §1

HT-29 cells [5] = test: Phase-II metabolism of compounds by HT-29 cells (UPLC-QTOF-MS of culture media); format: in vitro ADME, human; details: 50 μM, 24 h incubation
Method: (§3) Briefly, cell culture supernatants were collected at the end of the experiment and analyzed to measure the presence and concentration of the tested compounds. First, ACN (200 μL) was added per 200 μL of culture media, vortexed, and centrifuged at 16,435× g for 10 min. The supernatant was then concentrated in a Speedvac® concentrator (Savant SPD 121P), and then the residue was redissolved in 100 μL of MeOH and filtered (0.45 μm) before analysis by UPLC-QTOF-MS.
(§4) Briefly, the analyses were performed on an Agilent 1290 Infinity UPLC system coupled to a 6550 Accurate-Mass quadrupole-time-of-flight (QTOF) mass spectrometer (Agilent Technologies, Waldbronn, Germany) using an electrospray interface (Jet Stream Technology). Chrysin was used as an internal control of the ionization signal. Spectra were acquired in the m/z range from 100 to 1100, in negative polarity mode (m/z^−) and an acquisition rate of 1.5 spectra/s. Data were processed using the Mass Hunter Qualitative Analysis software (version B.06.00, Agilent). […]
(§5) A direct comparison with the available standards was used to identify the different metabolites. […] In addition, using extracted ion chromatograms (EICs) for area calculation and quantification reduced the possibility of misinterpreting overlapping peaks.

Caco-2 cells [6] = test: Phase-II metabolism of compounds by Caco-2 cells (UPLC-QTOF-MS of culture media); format: in vitro ADME, human; details: 50 μM, 72 h incubation
Method: as §3, §4, §5

CCD18-Co cells = test: MTT antiproliferative assay in non-tumorigenic CCD18-Co cells; format: cell-based; details: Homo sapiens, CCD-18Co, 72 h, non-tumorigenic colon cells
Method: as §2

[7] = set-up: method as in PMID 35981285; details: cited from earlier work
[8] = 48 h, read-out: IC50 Caco-2 (48 h)
[9] = 72 h, read-out: IC50 Caco-2 (72 h)
[10] = 48 h, read-out: IC50 HT-29 (48 h)
[11] = 72 h, read-out: IC50 HT-29 (72 h)

SMILES | early-phase apoptotic cells vs control cells (Caco-2 cells [1]) | IC50 (Caco-2 cells [2]; [8]) [µM] | IC50 (Caco-2 cells [2]; [9]) [µM] | IC50 (HT-29 cells [3]; [10]) [µM] | IC50 (HT-29 cells [3]; [11]) [µM] | late-phase apoptotic cells vs control cells (Caco-2 cells [1]) | cell cycle phase increase vs control (Caco-2 cells [4]) | IC50 decrease from 48 to 72 h in Caco-2 (Caco-2 cells [2]; ratio of IC50 at 48 h vs 72 h (Figure S1)) [fold] | compound metabolized by HT-29 cells after 24 h (HT-29 cells [5]) | compound metabolized by Caco-2 cells after 72 h (Caco-2 cells [6]) | IC50 decrease from 48 to 72 h in HT-29 (HT-29 cells [3]) | IC50 (CCD18-Co cells) [µM] | concentration reached in the human colon [7] [µM]
Oc1cccc(CCc2ccccc2)c1 [3HDB, 3-(2-phenylethyl)phenol] | statistically significant (p < 0.05) | > 100 | 42.9 ± 4.1 | > 100 | 81.7 ± 15.5 |  |  |  |  |  |  |  | 
Oc1ccc(CCc2ccccc2)cc1 [4HDB, 4-(2-phenylethyl)phenol] |  | > 100 | 56.9 ± 8 | > 100 | 96.7 ± 6.7 |  |  |  |  |  |  |  | 
Oc1ccc(/C=C/c2ccccc2)cc1 [4HST, 4-Hydroxy-trans-stilbene] |  | 26.9 ± 8 | 11.4 ± 10.1 | 34 ± 8.1 | 24.4 ± 11.3 | significant differences (p < 0.05) | significant increase (p < 0.05) was observed at both phases, S and G2/M | 5 | fully metabolized | hardly metabolized | 1.4 fold |  | 
OCc1ccc(/C=C/c2ccccc2)cc1 [4STMe, trans-4-stilbenemethanol] | statistically significant (p < 0.05) | 88.3 ± 14.6 | 59.9 ± 23.1 | 85.4 ± 16.5 | 57.1 ± 18.9 |  |  |  |  |  |  |  | 
Oc1cc(O)cc(CCc2ccccc2)c1 [DHP, 3-hydroxy-(5-phenethyl)phenol] | statistically significant (p < 0.05) | 54 ± 3.1 | 73.9 ± 13.8 | > 100 | 82.4 ± 12.1 |  |  |  |  |  |  |  | 
Oc1ccc(CCc2cc(O)cc(O)c2)cc1 [DHRSV, Dihydroresveratrol] | statistically significant (p < 0.05) | 55.4 ± 10.8 | 33.8 ± 17.8 | > 100 | 69 ± 9.3 |  |  |  |  |  |  | 53 | > 100
Oc1ccc(C=Cc2cccc(O)c2)cc1 [DHST, 3-(4-hydroxystyryl)phenol] | statistically significant (p < 0.05) | 57.1 ± 10.2 | 22.7 ± 6.4 | 64.8 ± 15.6 | 48.3 ± 17.8 | significant differences (p < 0.05) | significant increase (p < 0.05) was observed at both phases, S and G2/M |  |  |  |  |  | 
Oc1ccc(CCc2cccc(O)c2)cc1 [LUNU, 3-(4-hydroxyphenethyl)phenol] |  | 84.5 ± 11.7 | 50.5 ± 23.1 | > 100 | 53.2 ± 6.8 |  |  |  |  |  |  | 67 | > 100
Oc1cc(O)cc(/C=C/c2ccc(O)cc2O)c1 [Oxy-RSV, 3,5,2′,4′-tetrahydroxy-trans-stilbene] | statistically significant (p < 0.05) | 74.7 ± 11.5 | 55.4 ± 2.5 | 96.7 ± 2.4 | 83.4 ± 5.8 | significant differences (p < 0.05) |  |  |  |  |  |  | 
Oc1cc(O)cc(/C=C/c2ccc(O)c(O)c2)c1 [PICE, 3,5,3′,4′-tetrahydroxy-trans-stilbene] | statistically significant (p < 0.05) | 55.4 ± 10.8 | 42 ± 9.8 | 78.5 ± 5.7 | 69.5 ± 4.6 | significant differences (p < 0.05) |  |  |  |  |  |  | 
Oc1cc(O)cc(/C=C/c2ccccc2)c1 [PINO, 3,5-dihydroxy-trans-stilbene] | statistically significant (p < 0.05) | 55.3 ± 12.7 | 26.4 ± 7.1 | 37.5 ± 14.3 | 38.1 ± 8 |  |  |  |  |  | no change |  | 
COc1cc(/C=C/c2ccc(O)cc2)cc(OC)c1 [PTERO, 3,5-dimethoxy, 4′-hydroxy-trans-stilbene] | statistically significant (p < 0.05) | 67.6 ± 12.3 | 43 ± 11.6 | 45.1 ± 13.7 | 37.9 ± 5.4 | significant differences (p < 0.05) | significant increase (p < 0.05) was observed only at the G2/M phase |  |  |  |  |  | 
Oc1ccc(/C=C/c2cc(O)cc(O)c2)cc1 [RSV, 3,5,4′-trihydroxy-trans-stilbene] |  | 50.4 ± 3.4 | 18.8 ± 1.6 | 68.9 ± 22.6 | 59.1 ± 9.9 | significant differences (p < 0.05) |  |  | 100% | 14% |  |  | 
